The text below walks through data of US10000501B2, “Inhibitors of HIF prolyl hydroxylase” (MERCK SHARP & DOHME CORP., priority 2014, dated 2018).

Usually IC50 stands for the point on the concentration scale where inhibition reaches its midpoint. Higher therefore signals a need for much substance.

For this test, the target named is T1, human HIF-PHD2 (Homo sapiens, UniProt Q9GZT9).
T1 construct: FLAG-tagged full length PHD2 expressed in and purified from baculovirus-infected Sf9 cells; FLAG; made in house; host or cells: baculovirus-infected Sf9 cells
T1 sequence (Q9GZT9 whole entry): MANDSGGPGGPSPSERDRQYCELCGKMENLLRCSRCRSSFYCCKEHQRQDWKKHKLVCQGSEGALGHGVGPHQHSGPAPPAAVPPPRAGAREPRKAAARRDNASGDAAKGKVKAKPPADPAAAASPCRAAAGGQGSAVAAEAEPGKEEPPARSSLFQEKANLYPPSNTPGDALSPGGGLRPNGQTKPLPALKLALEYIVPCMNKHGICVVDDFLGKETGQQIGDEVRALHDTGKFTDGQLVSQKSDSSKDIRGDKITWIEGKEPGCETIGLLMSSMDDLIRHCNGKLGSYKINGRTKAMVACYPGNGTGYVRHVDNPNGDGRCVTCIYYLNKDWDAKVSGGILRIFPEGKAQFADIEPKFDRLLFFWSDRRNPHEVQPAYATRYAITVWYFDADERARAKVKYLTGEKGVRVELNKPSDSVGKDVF
In words: HIF-PHD2 inhibition assay (hydroxylation of HIF-1α peptide, time resolved fluorescence). The test is classed as biochemical. Conditions: FLAG-tagged full length PHD2; 0.2 μM 2-oxoglutarate, 0.5 μM HIF-1α peptide. On the procedure: To each well of a 384-well plate, 1 μL of test compounds in DMSO (final concentration ranging from 0.3 nM to 10 uM) were added into 20 μl of assay buffer (50 mM Tris pH 7.4/0.01% Tween-20/0.1 mg/ml bovine serum albumin/10 μM ferrous sulfate/1 mM sodium ascorbate/20 μg/ml catalase) containing 0.15 μg/ml FLAG-tagged full length PHD2 expressed in and purified from baculovirus-infected Sf9 cells. […] Purif.
For `NC(=O)c1ccc(-c2ccc(Cn3c4c(c(O)c(C(=O)NCC(=O)O)c3=O)CCOC4)cc2)cc1` [Example 68, 2-(1-((4′-carbamoyl-[1,1′-biphenyl]-4-yl)methyl)-4-hydroxy-2-oxo-2,5,6,8-tetrahydro-1H-pyrano[3,4-b]pyridine-3-carboxamido)acetic acid], 7.8 nM corresponded to half-maximal inhibition (IC50).
`N#Cc1ccc(-c2ccc(Cn3c4c(c(O)c(C(=O)NCC(=O)O)c3=O)CCOC4)cc2)cc1` [Example 69, 2-(1-((4′-cyano-[1,1′-biphenyl]-4-yl)methyl)-4-hydroxy-2-oxo-2,5,6,8-tetrahydro-1H-pyrano[3,4-b]pyridine-3-carboxamido)acetic acid] registered an IC50 of 16.3 nM.
With `CN1Cc2c(c(O)c(C(=O)NCC(=O)O)c(=O)n2Cc2ccc(C#N)cc2F)CC1=O` [Example 70, 2-(1-(4-Cyano-2-fluorobenzyl)-4-hydroxy-7-methyl-2,6-dioxo-1,2,5,6,7,8-hexahydro-1,7-naphthyridine-3-carboxamido)acetic acid], the midpoint of inhibition, the IC50, lay at 10.4 nM.
In the case of `CN1Cc2c(c(O)c(C(=O)NCC(=O)O)c(=O)n2Cc2ccc(S(C)(=O)=O)cc2)CC1=O` [Example 71, 2-(4-hydroxy-7-methyl-1-(4-(methylsulfonyl)benzyl)-2,6-dioxo-1,2,5,6,7,8-hexahydro-1,7-naphthyridine-3-carboxamido)acetic acid], inhibition was half-maximal at 19 nM (IC50).
For `CN1Cc2c(c(O)c(C(=O)NCC(=O)O)c(=O)n2Cc2ccc(F)cc2F)CC1=O` [Example 72, 2-(1-(2,4-difluorobenzyl)-4-hydroxy-7-methyl-2,6-dioxo-1,2,5,6,7,8-hexahydro-1,7-naphthyridine-3-carboxamido)acetic acid], the midpoint of inhibition, the IC50, lay at 28.7 nM.
For `CN1Cc2c(c(O)c(C(=O)NCC(=O)O)c(=O)n2Cc2cccc(C#N)c2)CC1=O` [Example 73, 2-(1-(3-cyanobenzyl)-4-hydroxy-7-methyl-2,6-dioxo-1,2,5,6,7,8-hexahydro-1,7-naphthyridine-3-carboxamido)acetic acid], the IC50 worked out at 17.2 nM. Compared with the last compound, the IC50 is about 1.7-fold lower.
In turn, `CN1Cc2c(c(O)c(C(=O)NCC(=O)O)c(=O)n2Cc2ccc(C#N)cc2)CC1=O` [Example 74, 2-(1-(4-cyanobenzyl)-4-hydroxy-7-methyl-2,6-dioxo-1,2,5,6,7,8-hexahydro-1,7-naphthyridine-3-carboxamido)acetic acid] came in with an IC50 of 7.5 nM.
Consider `CN1Cc2c(c(O)c(C(=O)NCC(=O)O)c(=O)n2Cc2ccccc2Cl)CC1=O` [Example 76, 2-(1-(2-chlorobenzyl)-4-hydroxy-7-methyl-2,6-dioxo-1,2,5,6,7,8-hexahydro-1,7-naphthyridine-3-carboxamido)acetic acid], for which it took 10.6 nM to reach half-maximal inhibition (IC50).
Turning to `O=C(O)CNC(=O)c1c(O)c2c(n(Cc3ccc(C(F)(F)F)cc3)c1=O)NCCC2` [Example 78, 2-(4-Hydroxy-2-oxo-1-(4-(trifluoromethyl)benzyl)-1,2,5,6,7,8-hexahydro-1,8-naphthyridine-3-carboxamido)acetic acid], half-maximal inhibition (IC50) was put at 70 nM.
`O=C(O)CNC(=O)c1c(O)c2c(n(Cc3ccc(C(F)(F)F)cc3)c1=O)CN(Cc1ccccc1)CC2` [Example 80, 2-(7-Benzyl-4-hydroxy-2-oxo-1-(4-(trifluoromethyl)benzyl)-1,2,5,6,7,8-hexahydro-1,7-naphthyridine-3-carboxamido)acetic acid] had an IC50 of 32 nM.
For the compound `CN1CCc2c(c(O)c(C(=O)NCC(=O)O)c(=O)n2Cc2ccc(C(F)(F)F)cc2)C1` [Example 81, 2-(4-Hydroxy-6-methyl-2-oxo-1-(4-(trifluoromethyl)benzyl)-1,2,5,6,7,8-hexahydro-1,6-naphthyridine-3-carboxamido)acetic acid], the IC50 turned out to be 46.1 nM.
`O=C(O)CNC(=O)c1c(O)c2c(n(Cc3ccc(C(F)(F)F)cc3)c1=O)C1CCC2C1` (centres unmarked) [Example 83, 2-(-4-hydroxy-2-oxo-1-(4-(trifluoromethyl)benzyl)-1,2,5,6,7,8-hexahydro-5,8-methanoquinoline-3-carboxamide)acetic acid] registered an IC50 of 46 nM. The IC50 values of the last two compounds are within 1.5-fold of each other.
Compound `O=C(O)CNC(=O)c1c(O)c2c(n(Cc3cnc(-c4ccccc4)s3)c1=O)C1CCC2C1` (centres unmarked) [Example 84, 2-(-4-hydroxy-2-oxo-1-((2-phenylthiazol-5-yl)methyl)-1,2,5,6,7,8-hexahydro-5,8-methanoquinoline-3-carboxamido)acetic acid] gave an IC50 of 19 nM.
Regarding `O=C(O)CNC(=O)c1c(O)c2c(n(Cc3nc(-c4ccccc4)cs3)c1=O)C1CCC2C1` (centres unmarked) [Example 85, 2-(-4-hydroxy-2-oxo-1-((4-phenylthiaozl-2-yl)methyl)-1,2,5,6,7,8-hexahydro-5,8-methanoquinoline-3-carboxamido)acetic acid], the IC50 was determined as 61 nM. This IC50 is about 3.2-fold higher than that of the compound before.
